Each structure is given as a SMILES string. “Also recorded” adds a separate entry of the source.

For test [1], the system named is human neuroblastoma cells. Put plainly: Whole-cell patch-clamp without GABA in the recording pipette (non-GABAergic effects). Format: cell-based. As to conditions: GABA not added in the recording pipette. An excerpt:
The present Invention relates to derivatives of allopregnanolone or of epipregnanolone that primarily and clearly create a cellular effect that is completely independent of the GABAa receptors. In fact, electrophysiological experiments conducted on human neuroblastoma cells using a Patch-Clamp technique, in a Patch-Clamp whole cell configuration, made it possible to see that when the GABA is not in the pipette, i.e., not introduced, or when the GABAa receptors are not activated, said derivatives were capable of inducing a specific cellular activity.
These experiments were carried out under the same recording conditions as the electrophysiological studies described above (A5), with the exception of the GABA, which was not added into the recording pipette.

Test [2] deals with type A GABA channel receptors (GABAa-R). Description: Whole-cell patch-clamp, effect on GABA-induced ionic current. Format: cell-based, human. As to conditions: 0.25 μM compound, GABA 10 μM in the recording pipette, whole cell patch-clamp. The method, then:
The studies were conducted using an electrophysiological approach. The activity of the cells was recorded using the patch-clamp technique in its so-called whole cell configuration. The mediums used for the recordings have the following composition (in mM): NaCl ([…]), KCl (2), CaCl2 (1), MgCl2 (2), HEPES (10) for the medium bathing the cells and NaCl (132), KCl (2), CaCl2 (1), MgCl2 (2), TEA (15), HEPES (10) for the recording pipette, the pH was adjusted in both cases to 7.4 with NaOH. The GABA 10 μM was added into the recording pipette.
After producing a “gigaseal” (Planar patch clamp) between the cellular membrane and the tip of a pipette with an electrical resistance comprised between 4 and 7 MO, the ionic currents were measured using a patch-clamp amplifier (Axopatch B200, Axon Instruments, CA). The acquisition of the signal (acquisition frequency of 10 kHz) was done using an interface card (Digidata 1322A, Axon Instruments, CA) and the pClamp 8 software (Axons Instruments, CA).
The allopregnanolone and the BR053, BR338, BR297 and BR351 derivatives were solubilized in pure ethanol before being diluted in the medium to the desired concentration. The dilution factor was at least equal to 2×10^4, which makes the final concentration of ethanol in the recording solution remain below […] (a concentration not affecting the activity of the GABAa receptor).
Depending on the experiments, the allopregnanolone or the BR053, BR338, BR297 or BR351 derivatives, at the concentration of 0.25 μM, were either added in the recording pipette at the same time as the GABA, or applied to the cell by perfusion.
The application was done by gravity through a multi-path perfusion system made up of glass tubes each having an inner diameter of 1 mm. The selected path was placed across from the recorded cell at approximately 100 μm. The solution was changed by calibrated rotation of the tubes using a stepping motor thus placing the new selected path across from the cell. Synchronously with that rotation, the solenoid valve controlling the flow of the selected path was also opened and the preceding one closed.

Consider `CC(=O)[C@H]1CCC2C3CC[C@H]4C[C@@H](O)CC[C@]4(C)C3CC(=O)[C@@]21C` (stereo partly shown) [BR053], for which the “Induction of cellular activity without GABA (non-GABAergic effect)” value in test [1] was “capable of inducing cellular activity”. Moreover, in test [2], the “Effect on the type A GABA receptor channel or GABAa-R” value is listed as “negative allosteric action; also recorded: Negative allosteric effect”.
The corresponding values for `C=CCO[C@H]1CC[C@]2(C)C3CC[C@@]4(C)C(CC[C@@H]4C(C)=O)C3CC[C@H]2C1` (stereo partly shown) [BR297] are “capable of inducing cellular activity” and “only partially mimics the positive allosteric effect; also recorded: Partial positive allosteric effect”.

Values taken from patent US20190002492A1, “DERIVATIVES OF ALLOPR[…] OF EPIALLOPR[…] USES THEREOF FOR TREATING A NEUROPATHOLOGICAL CONDITION” (UNIVERSITE DE STRASBOURG, priority 2011, published 2019).
